Laboratory results as given in patent US6537797B1, “Compositions and methods useful in bioremediation of polychlorinated biphenyls” (Indiana University, Advanced Research and Technology …, priority 1999, dated 2003).

Columns and labels:
Format in all cases: cell-based
bacterial strain SK-2 = assay: Growth substrate tests in liquid medium; details: initial concentration 100 parts per million, except chlorobenzoate 2-3 millimolar
Protocol: (§1) The ability of the four isolated strains to grow on selected polychlorobiphenyls as a sole carbon source was assessed.
(§2) (All tests were conducted in a liquid medium. The initial concentration of the organic substrate was 100 parts per million, except chlorobenzoate, which was 2-3 millimolar).

bacterial strain SK-1 [1] = assay: Growth substrate tests in liquid medium; details: initial concentration 100 parts per million, except chlorobenzoate 2-3 millimolar
Protocol: as §1, §2

bacterial strain SK-3 [2] = assay: Growth substrate tests in liquid medium; details: initial concentration 100 parts per million, except chlorobenzoate 2-3 millimolar
Protocol: as §1, §2

bacterial strain SK-4 [3] = assay: Growth substrate tests in liquid medium; details: initial concentration 100 parts per million, except chlorobenzoate 2-3 millimolar
Protocol: as §1, §2

bacterial strain SK-4 [4] = assay: Characterization of SK-4: growth on and degradation of 2,2′-DCBP and 2,4′-DCBP; details: 1.5×10^7 cells per milliliter
Protocol: The same methods for determining concentrations of analytes and for the incubation of the bacterial strain with growth substrate described herein for the previous analyses were used in the experiments to characterize SK-4. The concentration of SK-4 cells in the experiments was 1.5×10^7 cells per milliliter and the concentration of 2,2′-DCBP or 2,4′-DCBP was 100 milligrams per liter. […] Ortho-substituted congeners are common degradation products of anaerobic reductive dechlorination of more highly chlorinated PCBs (PCBs comprising more than two chlorine atoms) by anaerobic bacteria.
2,2′-DCBP was supplied at a concentration of 100 milligrams per liter dissolved in heptamethyl nonane (HMN), a non-biodegradable PCB solvent. Controls contained HMN but lacked 2,2′-DCBP.

bacterial strain SK-1 [5] = assay: Growth of SK-1 on 2,3-DCBP as sole carbon source and its degradation
Protocol: Growth of bacterial strains SK-1 and SK-2 on 2,3-DCBP and 3,4-DCBP, respectively, as a sole carbon source was determined using direct counting and an acridine orange staining method. This method involves filtering 0.1 milliliters of culture through a 0.45 micron filter, staining the cells on the filter using a 0.01% acridine orange solution for 3 to 5 minutes, and counting cells on the filter using an epifluorescent microscope at a 1000′ magnification. SK-1+ contained 2,3-dichlorobiphenyl; SK-2+ contained 3,4-dichlorobiphenyl. Control bottles in each case were identical to experimental bottles in that they were inoculated with the cultures but they lacked the appropriate congener. The initial concentration of PCBs was 500 ppm (w/v). The cell numbers of the two isolates increased by 1.5 orders of magnitude in the presence of the DCBPs used as a growth substrate. The degradation of 2,3-DCBP by SK-1 and production of 2,3-dichlorobenzoate is depicted in FIG. 3. The degradation of 3,4-DCBP by SK-2 and production of 3,4-dichlorobenzoate is depicted in FIG. 4.
(§3) The concentrations of chlorobenzoates and dichlorobiphenyls were assessed after hexane extraction of bottles using gas chromatography analysis of the extracts with an electron capture detector. Chlorobenzoates were analyzed using standard columns after derivitization with pentafluorobenzyl bromide. Dichlorobiphenyls were analyzed using a DB-5 column (J&W Scientific, Fulsom, Calif.).
The data shown in FIGS. 2, 3 and 4 illustrates the nearly complete disappearance of both 2,3-DCBP (0.38 mM initial concentration, FIG. 3) and 3,4-DCBP (0.3 mM initial concentration, FIG. 4) within 10 days of incubation. Duplicate bottles were used and error bars of the pictures represent a standard deviation. Controls contained DCBPs but lacked inoculum. DCBPs were supplied in the bottles using the non-biodegradable carrier heptamethylnonane (HMN).

[6] = test system: consortia of bacterial strains from PCB-contaminated tertiary lagoon sludge; assay: Degradation of selected PCB congeners in aerobic enrichment cultures; details: 100 ppm (w/v) mixture of five PCB congeners, with or without biphenyl cosubstrate; hexane extraction 45 days after inoculation, GC
Excerpt: A consortia of bacterial strains was isolated from tertiary lagoon sludge that was contaminated with PCBs for over twenty five years. The sludge was collected from the Winston-Thomas sewage treatment plant in Bloomington, Ind. PCB-degrading strains were enriched using a minimal medium comprising a 100 ppm (w/v) mixture of the following five PCB congeners as the carbon source: 2,3-dichlorobiphenyl (DCBP), 2,4,4′-trichlorobiphenyl (TCBP), 2,4,6-trichlorobiphenyl, 2,2′,5,5′-tetrachlorobiphenyl, and 2,2′,4,4′,5,5′-hexachlorobiphenyl. Biphenyl was also added to the medium in some samples as an additional carbon source to stimulate the cometabolism of biphenyl and the PCBs. About 30-35 milliliters of the medium was inoculated with 5-10 milliliters of PCB-contaminated sludge and incubated in 160-mL serum bottles sealed with Teflon-coated stoppers. The bottles were incubated horizontally on a shaker table at room temperature. The headspace in the bottles was purged with air once a week to maintain aerobic conditions. Every 4-6 weeks, 10% of the culture was transferred to fresh medium. […] The concentrations of the PCB congeners were determined by extracting bottles with hexane 45 days after inoculation (a single bottle extraction), and analyzing hexane extracts by gas chromatography using a DB-5 column (J&W Scientific, Folsum, Calif.) and an electron capture detector. The results from this analysis are depicted in FIG. 1.

bacterial strain SK-3 [7] = assay: Characterization of SK-3: growth on and degradation of chlorobiphenyls and chlorobenzoates; details: for Chloride and chlorobenzoic acid (CBA) formed on degradation by SK-3: 88 hours, 23° C., aerobic, shaker table
Protocol: as §3
The results from this experiment are depicted in FIG. 5.
The growth of SK-3 on 4-chlorobiphenyl (4-CB) was compared with growth on its non-chlorinated form, biphenyl. […] The results from this experiment are depicted in FIG. 6. The concentration of chloride ion was determined using ion chromatography on a standard Dionex ion chromatography column. The concentration of 4-CB was assessed after hexane extraction of bottles by analyzing the hexane extracts using gas chromatography on a DB-5 column (J&W Scientific, Fulsom, Calif.) and an electron capture detector.
The growth of SK-3 on chlorobenzoates was assessed. […] The results from this experiment are depicted in FIG. 7.
The degradation of three different monochlorobiphenyls, (2-CB, 3-CB, and 4-CB) by SK-3 was assessed at 23° C. under aerobic conditions on a shaker table. After incubation of SK-3 with the selected monochlorobiphenyl for 88 hours, the concentrations of chloride and the corresponding chlorobenzoic acids (CBA) was assessed as described herein. The results from this experiment are depicted in FIG. 8.
The growth of SK-3 on dichloro-biphenyls was also assessed. […] The results of this experiment are depicted in FIG. 9.

[8] = substrate in heptamethyl nonane

Compound	Growth of SK-2 on the substrate as sole carbon source (bacterial strain SK-2)	Growth of SK-1 on the substrate as sole carbon source (bacterial strain SK-1 [1])	Growth of SK-3 on the substrate as sole carbon source (bacterial strain SK-3 [2])	Growth of SK-4 on the substrate as sole carbon source (bacterial strain SK-4 [3])	further results
2,3,4-trichlorobenzoate	No	No	No		
Clc1ccccc1-c1cccc(Cl)c1Cl [2,2′,3-TCBP]	No	No	No	No	
Clc1ccc(Cl)c(-c2ccccc2Cl)c1 [2,2′,5-TCBP]				No	
Clc1ccccc1-c1ccccc1Cl [2,2′-DCBP, 2,2′-dichlorobiphenyl]	No	No	No	exhibited growth and Yes	Growth of SK-4 on the substrate as sole carbon source (bacterial strain SK-4 [4]; 100 milligrams per liter): growth; Chloride release on degradation by SK-4 (bacterial strain SK-4 [4]; [8]): stoichiometric release of chloride; Chlorobenzoate production on degradation by SK-4 (bacterial strain SK-4 [4]; [8]): completely transformed into 2-CBA
Clc1cccc(-c2ccccc2)c1Cl [2,3-DCBP, 2,3-dichlorobiphenyl]	No	exhibited growth and Yes	No	No	Time to nearly complete disappearance (bacterial strain SK-1 [5]; SK-1, 0.38 mM initial concentration, supplied in heptamethylnonane): ≤ 10 days; Increase of cell numbers in the presence of the DCBP as growth substrate (bacterial strain SK-1 [5]; SK-1, initial concentration 500 ppm (w/v), acridine orange direct counting): 1.5 orders of magnitude; Degradation of PCB congener in aerobic enrichment cultures [6]: degraded in bottles which lacked a cometabolic substrate
O=C(O)c1cccc(Cl)c1Cl [2,3-dichlorobenzoate]	No	No	No	No	Production of chlorobenzoate from 2,3-DCBP by SK-1 (bacterial strain SK-1 [5]; 0.38 mM 2,3-DCBP initial concentration): almost stoichiometric
Clc1ccc(-c2ccc(Cl)cc2Cl)cc1 [2,4,4′-TCBP, 2,4,4′-trichlorobiphenyl]					Degradation of PCB congener in aerobic enrichment cultures [6]: degraded only in the bottles which contained biphenyl as a cosubstrate
Clc1cc(Cl)c(-c2ccccc2)c(Cl)c1 [2,4,6-TCBP, 2,4,6-trichlorobiphenyl]					Degradation of PCB congener in aerobic enrichment cultures [6]: degraded only in the bottles which contained biphenyl as a cosubstrate
Clc1ccc(Cl)c(-c2ccccc2)c1 [2,5-DCBP]	No	Likely	No	No	
O=C(O)c1ccccc1Cl [2-chlorobenzoate]	No	No	No	No	
Clc1ccccc1-c1ccccc1 [2-chlorobiphenyl]	Yes	Yes	Yes	Yes	Chloride and chlorobenzoic acid (CBA) formed on degradation by SK-3 (bacterial strain SK-3 [7]): partial release of chloride and production of 2-CBA
Clc1ccc(-c2ccccc2Cl)cc1Cl [2′,3,4-TCBP]	No	No	No	No	
Clc1cccc(-c2cccc(Cl)c2)c1 [3,3′-DCBP]			No	No	
Clc1cc(Cl)cc(-c2ccccc2)c1 [3,5-DCBP]	No	No	No	No	
O=C(O)c1cccc(Cl)c1 [3-chlorobenzoate]	No	No	No	No	
Clc1cccc(-c2ccccc2)c1 [3-chlorobiphenyl]	Yes	Yes	Yes	Yes	Chloride and chlorobenzoic acid (CBA) formed on degradation by SK-3 (bacterial strain SK-3 [7]): transformed 3-CB to 3-CBA without producing chloride
Clc1ccc(-c2ccc(Cl)cc2)cc1 [4,4′-DCBP]			No	No	
Clc1ccc(-c2ccccc2)cc1 [4-chlorobiphenyl]	Yes	Yes	Yes	Yes	Chloride and chlorobenzoic acid (CBA) formed on degradation by SK-3 (bacterial strain SK-3 [7]): did not generate 4-CBA; Release of chloride during degradation by SK-3 (bacterial strain SK-3 [7]; chloride by ion chromatography): stoichiometric production of chloride
O=C(O)c1ccccc1 [Benzoate]	Yes	Yes	Yes	Yes	
c1ccc(-c2ccccc2)cc1 [Biphenyl]	Yes	Yes	Yes	Yes	
O=C(O)CCl [Chloroacetate]	No	Yes	Yes	Yes	
c1ccc2ccccc2c1 [Naphthalene]	No	No	No	No	
Oc1ccccc1 [Phenol]	No	Yes	Yes	Yes	
